Results reported in ChEMBL document CHEMBL3745605, “Aspernigrins with anti-HIV-1 activities from the marine-derived fungus Aspergillus niger SCSIO Jcsw6F30” (Bioorg Med Chem Lett, 2016).
Calls of active or inactive are those of the source. No cut-off for these calls is given here. Bridge positions count the residues as written; N and C are the ends. Square brackets hold non-standard residues; d marks the D form. Peptide text beside a SMILES is read from it.

How the values were obtained:
[1] = system: Human immunodeficiency virus 1; assay: Antiviral activity against HIV-1 SF162 infected in TZM-bl cells at 50 uM after 2 days by luciferase reporter gene assay; format: functional, cell-based; settings: SF162 ISOLATE
[2] = system: Human immunodeficiency virus 1; assay: Antiviral activity against HIV-1 SF162 infected in TZM-bl cells after 2 days by luciferase reporter gene assay; format: functional, cell-based; settings: Human immunodeficiency virus 1, SF162 ISOLATE, 48 h
[3] = Cytotoxicity against human TZM-bl cells after 2 days by colorimetric XTT assay; format: cell-based
[4] = Selectivity index, ratio of CC50 for human TZM-bl cells to IC50 for HIV-1 SF162 infected in TZM-bl cells; format: functional

| Structure (SMILES) | IC50 [2] | Activity [1] | CC50 at 48 h [3] | Ratio CC50/IC50 [4] |
| --- | --- | --- | --- | --- |
| COc1cc([C@H](Cc2ccccc2)n2cc(C(N)=O)c(=O)cc2Cc2ccccc2)oc(=O)c1 | – | inactive | – | – |
| COc1cc(O)cc2cc3c(c(O)c12)C(=O)CC(C)(O)O3 (stereo not drawn) | – | inactive | – | – |
| COc1ccc(S(=O)(=O)O)cc1/N=N/c1c(S(=O)(=O)O)cc2cc(Nc3nc(Nc4ccccc4)nc(Nc4cc(C)c(/N=N/c5cc(S(=O)(=O)O)cc6cc(S(=O)(=O)O)cc(O)c56)cc4OC)n3)ccc2c1O | 1.8 µM | – | – | – |
| COC(=O)[C@@H](C)CC(=O)NC(=O)c1cn([C@@H](Cc2ccccc2)c2cc(OC)cc(=O)o2)c(Cc2ccccc2)cc1=O | – | inactive | – | – |
| COc1cc(O)c2c(O)c3c(=O)cc(C)oc3cc2c1 [RUBROFUSARIN] | 56.2 µM | – | 1020 µM | 18.1 |
| COc1cc(OC)c2c(O)c3c(=O)cc(C)oc3cc2c1 | – | inactive | – | – |
| CC(C)C[C@@H]1NC(=O)[C@@H](CC(C)C)NC(=O)[C@H](C(C)C)NC(=O)[C@H]2CSSC[C@@H](NC1=O)C(=O)N2 (cyclo(L[dC][dC]V[dL]); disulfide 2-3) | 1.4 µM | – | 16.4 µM | 11.4 |

Further lines, with some results ahead:

| IC50 [2] | Structure (SMILES) | Activity [1] | CC50 at 48 h [3] | Ratio CC50/IC50 [4] |
| --- | --- | --- | --- | --- |
| 0.8 µM | Nc1nc(NC2CC2)c2ncn([C@H]3C=C[C@@H](CO)C3)c2n1 [ABACAVIR] | – | – | – |
| 83.2 µM | NC(=O)c1c[nH]c(Cc2ccccc2)cc1=O | – | 583 µM | 7 |
| 4.7 µM | COc1cc([C@H](Cc2ccccc2)n2cc(C(=O)NC(=O)C[C@H](C)C(=O)O)c(=O)cc2Cc2ccccc2)oc(=O)c1 | – | 35 µM | 7.5 |
